pIC50: −log10 of the molar value.
Tests used:
[1] = target: T1, human CYP11B1 (Homo sapiens, UniProt P15538); assay: In vitro activity assay of monoclonal cells overexpressing human CYP11B1; type: cell-based; settings: G402 cells overexpressing human CYP11B1; substrate 11-deoxycortisol 1 μM; 16 hours
T1 construct: expressed in transfected cells; host or cells: human renal leiomyoma G402 cell line (monoclonal cells overexpressing human CYP11B1)
T1 sequence (P15538 25-503): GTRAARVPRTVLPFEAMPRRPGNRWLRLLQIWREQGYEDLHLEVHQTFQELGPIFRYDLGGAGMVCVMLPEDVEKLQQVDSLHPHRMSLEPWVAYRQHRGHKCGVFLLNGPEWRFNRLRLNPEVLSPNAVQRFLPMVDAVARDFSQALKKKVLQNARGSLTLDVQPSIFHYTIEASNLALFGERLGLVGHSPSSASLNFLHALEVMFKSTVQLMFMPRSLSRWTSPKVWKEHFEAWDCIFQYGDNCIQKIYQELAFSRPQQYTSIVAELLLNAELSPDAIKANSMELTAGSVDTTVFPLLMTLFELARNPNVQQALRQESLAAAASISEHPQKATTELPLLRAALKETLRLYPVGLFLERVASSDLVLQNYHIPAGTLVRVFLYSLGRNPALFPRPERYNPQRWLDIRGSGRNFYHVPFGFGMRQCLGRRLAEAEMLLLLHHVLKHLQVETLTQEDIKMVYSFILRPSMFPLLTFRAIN
Protocol: The human renal leiomyoma G402 cell line overexpressing human CYP11B1 was selected to serve as a compound selectivity screening system. Details are as follows: • 1) The cells, reagents, and instrument information were consistent with Experimental Example 1 (activity of monoclonal cells overexpressing human CYP11B2). • 2) Compound details: The test compound was prepared as a […] working concentration using DMSO. • 3) Experimental procedure
Day 1: Cells were digested, and human renal leiomyoma G402 cells overexpressing CYP11B1 were resuspended to 1×10^5 cells/mL, with […] seeded into a 96-well plate.
Day 2: The medium was replaced with DMEM/F12 containing 2.5% charcoal-stripped fetal bovine serum.
After one hour, the substrate was added: 30 mM 11-deoxycortisol was diluted 1500-fold with culture medium, and 5 μL was dispensed per well to achieve a final concentration of 1 μM, followed by incubation for 16 hours.
Day 3: The cell supernatant was collected and added to 200 μL of a methanol solution containing internal standards (internal standards: 35 ng/mL ketoprofen or 7.5 ng/mL carbamazepine or 5 ng/mL diphenhydramine or 10 ng/mL tolbutamide). […] The mixture was centrifuged (4000 g, 4° C., 15 min), and the supernatant was analyzed by ESI-LCMS/MS. • 4) Data analysis: […]
The IC50 of the test compound was determined by fitting to a nonlinear regression equation using XLfit 5.5.0.

[2] = In vivo pharmacokinetics study in rats; design: species or system SD rat; settings: rat, plasma, male SD rats, oral 2 mg/kg
[3] = In vitro liver microsome metabolic stability study; type: in vitro ADME; settings: human liver microsomes 0.5 mg/mL, compound 1 μM, 37° C., up to 60 minutes; read-out: Intrinsic hepatic clearance CLint(liver)
Protocol: Stock solution: 10 mM in DMSO.
Only 54 μL of microsomal working solution, 6 μL of NADPH regeneration system working solution, and 180 μL of stop solution were added to the blank plate.
LC-MS/MS analysis was performed.

[4] = Plasma protein binding rate test, cynomolgus monkey (equilibrium dialysis); type: in vitro ADME; settings: 37° C., read-out: Plasma protein binding rate (%) in cynomolgus monkeys (converted)
Source text: The sample was thoroughly mixed.

[5] = target: T2, CYP2C9 (Homo sapiens, UniProt P11712); assay: Human liver microsome CYP inhibition assay, CYP2C9; type: in vitro ADME; settings: role: inhibitor; human liver microsomes, probe substrate; read-out: CYP2C9 half maximal inhibitory concentration IC50
T2 construct: Mixed human liver microsomes (HLM) were purchased from Corning Inc; tissue Corning Inc; host or cells: mixed human liver microsomes (HLM)
Protocol: (§1) Experimental objective: To evaluate the inhibitory activity of the test substance on human liver microsomal cytochrome P450 isoenzymes (CYP1A2, CYP2C9, CYP2C19, CYP2D6, CYP3A4) using a 5-in-1 probe substrate for CYP isoenzymes.
(§2) Mixed human liver microsomes (HLM) were purchased from Corning Inc. (Steuben, New York, USA) and stored at temperatures below −70° C. prior to use.
(§3) The working solution of the test substance, which had been diluted to a series of concentrations, was added to an incubation system containing human liver microsomes, probe substrates, and auxiliary factors of the circulatory system. A control containing solvent but no test substance served as an enzyme activity control (100%). The concentration of metabolites produced from probe substrates in the samples was determined using Liquid Chromatography-Tandem Mass Spectrometry (LC-MS/MS) method. Non-linear regression analysis of the average percentage activity of the test substance against its concentration was conducted using SigmaPlot (V.11). The IC50 values were calculated using a three-parameter or four-parameter inverse log equation.

[6] = target: T3, CYP2D6 (Homo sapiens, UniProt P10635); assay: Human liver microsome CYP inhibition assay, CYP2D6; type: in vitro ADME; settings: role: inhibitor; human liver microsomes, probe substrate; read-out: CYP2D6 half maximal inhibitory concentration IC50
T3 construct: Mixed human liver microsomes (HLM) were purchased from Corning Inc; tissue Corning Inc; host or cells: mixed human liver microsomes (HLM)
Protocol: as §1, §2, §3

[7] = target: T4, CYP3A4 (Homo sapiens, UniProt P08684); assay: Human liver microsome CYP inhibition assay, CYP3A4; type: in vitro ADME; settings: role: inhibitor; human liver microsomes, probe substrate; read-out: CYP3A4 half maximal inhibitory concentration IC50
T4 construct: Mixed human liver microsomes (HLM) were purchased from Corning Inc; tissue Corning Inc; host or cells: mixed human liver microsomes (HLM)
Protocol: as §1, §2, §3

T2 sequence (P11712 whole entry): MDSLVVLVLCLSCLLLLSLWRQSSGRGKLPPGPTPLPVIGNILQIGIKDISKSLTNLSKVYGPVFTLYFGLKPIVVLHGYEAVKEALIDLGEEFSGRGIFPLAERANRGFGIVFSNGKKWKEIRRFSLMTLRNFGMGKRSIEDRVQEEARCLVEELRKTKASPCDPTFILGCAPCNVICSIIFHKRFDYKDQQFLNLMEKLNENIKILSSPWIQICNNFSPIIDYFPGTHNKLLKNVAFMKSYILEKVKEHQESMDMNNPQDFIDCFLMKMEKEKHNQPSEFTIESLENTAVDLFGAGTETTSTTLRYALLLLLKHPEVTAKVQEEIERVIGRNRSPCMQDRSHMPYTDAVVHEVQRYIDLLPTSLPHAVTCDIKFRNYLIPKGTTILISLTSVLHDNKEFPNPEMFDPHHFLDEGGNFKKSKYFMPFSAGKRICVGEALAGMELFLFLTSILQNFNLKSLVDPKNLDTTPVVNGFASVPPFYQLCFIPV
T3 sequence (P10635 whole entry): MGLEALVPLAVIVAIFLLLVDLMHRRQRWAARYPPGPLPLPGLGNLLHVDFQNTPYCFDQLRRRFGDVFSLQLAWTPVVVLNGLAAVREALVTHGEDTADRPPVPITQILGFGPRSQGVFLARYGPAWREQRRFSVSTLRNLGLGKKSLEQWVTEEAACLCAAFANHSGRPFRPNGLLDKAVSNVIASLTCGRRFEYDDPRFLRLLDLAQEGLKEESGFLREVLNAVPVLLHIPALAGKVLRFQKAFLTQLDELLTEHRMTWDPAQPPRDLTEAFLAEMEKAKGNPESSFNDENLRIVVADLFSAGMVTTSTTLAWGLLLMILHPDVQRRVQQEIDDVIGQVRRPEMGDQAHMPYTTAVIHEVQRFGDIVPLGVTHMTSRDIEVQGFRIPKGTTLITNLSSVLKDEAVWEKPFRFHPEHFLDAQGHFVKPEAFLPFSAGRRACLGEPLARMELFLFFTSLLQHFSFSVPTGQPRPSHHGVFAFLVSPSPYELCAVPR
T4 sequence (P08684 whole entry): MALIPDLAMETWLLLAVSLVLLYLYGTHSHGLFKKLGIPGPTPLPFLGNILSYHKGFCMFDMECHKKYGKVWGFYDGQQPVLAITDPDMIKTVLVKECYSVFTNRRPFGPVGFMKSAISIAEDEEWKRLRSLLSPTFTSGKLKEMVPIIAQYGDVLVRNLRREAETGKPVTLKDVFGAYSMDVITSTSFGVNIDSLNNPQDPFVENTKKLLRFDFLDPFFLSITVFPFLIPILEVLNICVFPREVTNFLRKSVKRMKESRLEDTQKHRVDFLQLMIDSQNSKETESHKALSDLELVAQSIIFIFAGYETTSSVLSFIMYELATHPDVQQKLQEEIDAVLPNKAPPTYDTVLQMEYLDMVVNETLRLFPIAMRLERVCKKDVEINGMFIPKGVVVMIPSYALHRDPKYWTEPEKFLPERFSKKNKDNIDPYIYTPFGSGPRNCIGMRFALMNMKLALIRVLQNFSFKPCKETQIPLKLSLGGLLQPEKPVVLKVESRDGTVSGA

pIC50 [1]: 5.46
bioavailability [2]: 157%
half-life [2]: 2.36 h
Cmax [2]: 8.29 µM
AUC(0-t) at 24 h ([2]; read-out: AUC0-24 h): 49.9 µM·h
CLint scaled at 1 µM [3]: < 8.6 mL/min/kg
fraction unbound at 4 h [4]: 0.451
pIC50 [5]: < 4.30
pIC50 [6]: < 4.30
pIC50 [7]: < 4.30
Compound: CCC(=O)N[C@H]1CCOc2c(-c3ccc4c(c3)CCC(=O)N4C)cncc21 (single isomer, unassigned) [Compound 037]

— patent US20260317314A1, “NITROGEN-CONTAINING HETEROCYCLIC COMPOUND AND USE THEREOF” (JIANGSU DEYUAN PHARMACEUTICAL CO.,LTD., priority 2023, published 2026)
